Measured values taken from patent publication US20080220416A1, “Compositions for Inhibiting Cell Growth and Inducing Apoptosis in Cancer Cells and Methods of Use Thereof” (THE BOARD OF TRUSTEES OF THE UNIVERSITY OF ILLINOI, priority 2004, published 2008).
Square brackets hold non-standard residues; d marks the D form. Peptide text beside a SMILES is read from it. * marks the point of attachment. Nle = CCCC[C@H](N)C(=O)O; Cbz = O=C(OCc1ccccc1)*

Experiments:
normal melanocytes = test: Proteasome inhibitors, apoptosis of normal melanocyte cultures (Annexin V FITC flow cytometry); format: cell-based, human
Experimental: The proteasome inhibitors lactacystin, MG-132, and bortezomib were evaluated for the ability to induce apoptosis in malignant melanoma cell lines (n=3) including an early passage line, RJ002L. MG-132 was obtained from Calbiochem (La Jolla, Calif.) and dissolved in DMSO. Lactacystin was purchased from Sigma Chemical Co. (St. Louis, Mo.) and dissolved in PBS. Bortezomib was obtained from a pharmacy as VELCADE (bortezomib) for Injection from a single use vial for intravenous use only (Millennium Pharmaceuticals, Cambridge, Mass.). A cell line with wild-type p53 (RJ002L) and two melanoma cell lines with mutant p53 alleles (C8161 and MUM2B) were included in this study. Two additional melanoma cell lines were also used: cutaneous SK-MeI-28 cells and primary, early passage MG012 cells. In addition, five normal melanocyte culture cell lines (MC-005, MC-006, MC-008, MC-009 and MC-011) were examined. Prior to testing, the melanoma cell lines were maintained in RPMI supplemented with 10% FBS. Normal human melanocytes were isolated from neonatal foreskins as previously described (Qin J et al., 2004, Mol Cancer Ther 3:895-902, 2004) and cultured with medium 154 containing growth supplements (Cascade Biologics, Portland, Oreg.).
To assess the effect of proteasome inhibitors on the cell lines, the cells were grown in suitable culture media as described above. […]
Following treatment with the proteasome inhibitors, the melanoma and melanocyte cell cultures were assayed for apoptotic cells using the APO TARGET Annexin V FITC staining kit (Biosource, Camarillo, Calif.) according to the manufacturer's instructions followed by flow cytometric analysis using FACScaliber (Becton Dickinson, Palo Alto, Calif.) as described in Qin, J. et al., 2001, Nat Med 7: 385-386. In some cases, cell cycle and apoptosis analysis was measured using propidium iodide staining and flow cytometry as described. […] For cell analysis, DNA histograms were analyzed using MultiCycle for Windows (Phoenix Flow Systems, San Diego, Calif.) as described in Denning, M. F. et al., 1998, J Biol Chem 273: 29995-30002.

melanoma cell lines = test: Apoptosis of melanoma cell lines treated with z-Leu-Leu-Nle-CHO (Annexin V FITC / propidium iodide flow cytometry); format: cell-based, human; conditions: each of nine melanoma cell lines; 10 μM for 24 h
Experimental: The effect of z-Leu-Leu-Nle-CHO on apoptosis was tested in vitro using normal human melanocytes and several melanoma cell cultures. Prior to testing, cutaneous (C8161, SK-MeI-28, SK-MeI-100, SK-MeI-5, C81-61), uveal or ocular (MUM2B, MUM2C, OCM-1A), and pulmonary metastases (RJ002L) melanoma cell lines were maintained in RPMI supplemented with 10% FBS. Normal human melanocytes were isolated from neonatal foreskins as previously described (Qin J et al., 2004, Mol Cancer Ther 3:895-902) and cultured with medium 154 containing growth supplements (Cascade Biologics, Portland, Oreg.).
To assess the effect of z-Leu-Leu-Nle-CHO on the cell lines, the cells were grown in suitable culture media. Highly proliferating cells (i.e., cells that had reached approximately 30% confluency) were exposed to z-Leu-Leu-Nle-CHO as described below. […]
Following treatment with z-Leu-Leu-Nle-CHO, the melanoma and melanocyte cell cultures were assayed for apoptotic cells using the APO TARGET Annexin V FITC staining kit (Biosource, Camarillo, Calif.) according to the manufacturer's instructions followed by flow cytometric analysis using FACScaliber (Becton Dickinson, Palo Alto, Calif.) as described in Qin, J. et al., 2001, Nat Med 7:385-386. In some cases, cell cycle and apoptosis analysis was measured using propidium iodide staining and flow cytometry as described. […]

SK-MeI-28 melanoma cells = test: Dosing study versus chemotherapeutic agents, killing of SK-MeI-28 melanoma cells; format: cell-based, human; conditions: SK-MeI-28, mutated p53
Experimental: An initial dosing study comparing z-Leu-Leu-Nle-CHO against three different chemotherapeutic agents (i.e., adriamycin, etoposide, and cisplatin) was performed to evaluate the relative effectiveness of z-Leu-Leu-Nle-CHO in killing melanoma cells. In agreement with a previous report by Soengas, M. S. et al., 2001, Nature 409.207-211, SK-MeI-28 cells, carrying a mutated p53, were relatively resistant to killing by adriamycin, as well as to killing by other chemotherapeutic agents. For SK-MeI-28 melanoma cells, the maximal apoptotic response for adriamycin, etoposide, cisplatin, and z-Leu-Leu-Nle-CHO was 12.0%, 2.6%, 4.0%, and 29.4%, respectively. For RJ002L melanoma cells, the maximal apoptotic response for adriamycin, etoposide, cisplatin, and z-Leu-Leu-Nle-CHO was 23.9%, 12.7%, 3.4%, and 45.7%, respectively.

[1] = test system: SAOS-2 osteosarcoma cells; test: z-Leu-Leu-Nle-CHO on NOXA and apoptosis in SAOS-2 osteosarcoma cells; format: cell-based; conditions: 10 μM
[2] = test system: C8161 melanoma tumor xenograft; test: C8161 melanoma tumor xenograft in Nude mice, z-Leu-Leu-Nle-CHO injections; format: in vivo
Experimental: Assessment of tumor formation in Nude mice was performed by adapting the method described in Hendrix, M. J. et al., 1997, Am J Pathol 150:483-495. Tumors were established in Nude mice as follows. Briefly, 1×10^6 aggressive melanoma cells (C8161) (ATCC, Rockville, Md.) were injected subcutaneously in Nude mice on day 0, and the tumors were allowed to grow for 1 week. Beginning on day 8, mice received injections (100 μl) of DMSO carrier only (control group) or z-Leu-Leu-Nle-CHO (1 mM in DMSO) (Calbiochem, LaJolla, Calif.) (experimental group) every other day for 1 week. Tumor sizes (mm^2) were determined on day 7 prior to injections with or z-Leu-Leu-Nle-CHO or DMSO, and on day 14. Average tumor size for both groups was normalized, and size of tumors at 2 weeks was averaged. Detection of apoptosis in tissue sections was performed using TUNEL staining as described in Wrone-Smith et al, 1997, Am J Pathol. 151:1321-9.

Structure (SMILES): CC(C)C[C@H](NC(=O)[C@H](Cc1ccccc1)NC(=O)c1cnccn1)B(O)O [bortezomib, N-(2-pyrazine)carbonyl-L-phenylalanine-L-leucine boronic acid]
- apoptotic response (normal melanocytes; MC009 and MC011, 0.01 to 10 μM, 24 hrs continuous exposure): less than 10%

Structure (SMILES): CCCC[C@@H](C=O)NC(=O)[C@H](CC(C)C)NC(=O)[C@H](CC(C)C)NC(=O)OCc1ccccc1 [z-Leu-Leu-Nle-CHO, N-benzyloxycarbonyl-leucyl-leucyl-norleucinal] (Cbz-Leu-Leu-[Nle]-aldehyde)
- induction of apoptosis (melanoma cell lines): triggered a dose-dependent increase in apoptosis
- maximal apoptotic response (SK-MeI-28 melanoma cells): 29.4%
- NOXA expression ([1]; SAOS-2, p53 null): induced expression of NOXA
- dead cells ([1]; SAOS-2, after 24 hrs, data not shown): > 50%
- average tumor size ([2]; 1 mM in DMSO, 100 μl every other day for 1 week, compared to DMSO, p=0.046, n=11): significantly reduced tumor size
- apoptosis in tumor by immunofluorescent TUNEL assay ([2]; 1 week of treatment, 1 mM, versus DMSO carrier): High levels of apoptosis

Structure (SMILES): CC(C)C[C@@H](C=O)NC(=O)[C@H](CC(C)C)NC(=O)[C@H](CC(C)C)NC(=O)OCc1ccccc1 [MG-132, benzoxycarbonyl-Leucyl-Leucyl-Leucyl-aldehyde] (Cbz-Leu-Leu-Leu-aldehyde)
- cells undergoing apoptosis (normal melanocytes; MC-005, MC-006, MC-008, 24 hrs, 1, 5 or 10 μM): No more than 10%
